Data as given in US4448730A, “Hydroxybenzohydroxamic acids, benzamides and esters and related compounds as ribonucleotide reductase inhibitors” (priority 1982, dated 1984).
Several values for one entry are separate records, joined by “and”; a condition that tells them apart may be missing. Equal entries are not always repeated. Where two headings read alike, the source gives them in different places.

Columns and labels:
[1] = tested on: M-1 human breast xenograft; experiment: Inhibition of growth of M-1 human breast xenograft; assay type: in vivo, mice
From the text: (§1) The same two compounds were effective in inhibiting the growth of the following transplanted tumors--B16 melanoma, M-1 human breast xenograft, LX-1 human lung xenograft, CD8F mammary tumor and colon 38 tumor--as follows: […]

L1210 leukemia [2] = experiment: L1210 leukemia in mice, increase in life span (Table 2); assay type: in vivo; settings: Mus musculus, L1210, 192 h, read-out: ILS, average percent (± standard error) increase in life span
From the text: As stated above, the compounds represented by formula I above have the ability to inhibit ribonucleotide reductase, an enzyme involved in the reductive conversion of ribonucleotides to deoxyribonucleotides. This enzymatic reaction is a rate controlling step in the biosynthetic pathway leading to DNA and cell replication. In general, the ribonucleotide reductase level is closely correlated with cellular replication.
(§2) Table 2 gives ribonucleotide reductase data for certain compounds of formula I. In the table, column 1 gives the substitution pattern in the benzene ring, column 2, the R^1 group, column 3, the ID50 (inhibitory dose in micromolar concentration which inhibits ribonucleotide reductase by 50%), column 4, the average percent (± standard error) increase in the life span (ILS) of 8 treated mice inoculated with L1210 leukemia compared with 8 control mice also inoculated with L1210. The daily dose level of the drug which was administered for 8 days is indicated in column 5. Table 3 gives the relative potency of the compounds represented by formula I above as inhibitors of ribonucleotide reductase compared to hydroxyurea whose potency was given an arbitrary value of 1.0. In table 3, column 1 gives the name of the compound and column 2 the relative inhibitory potency of each of the compounds of column 1.

L-1210 Leukemia [3] = assay type: in vivo, mice; settings: once or twice daily for 9-10 days
Experimental: (§3) All compounds were administered once or twice daily for 9-10 days starting 24 hours after inoculation with the tumor.

L-5563 lymphoma = experiment: Activity vs. L-5563 lymphoma (Table 6); settings: once or twice daily for 9-10 days
Experimental: as §3

B16 melanoma = experiment: B16 melanoma, increase in survival; assay type: in vivo, mice
From the text: as §1

CX-1 colon xenograft = experiment: Activity against CX-1 colon xenograft; assay type: in vivo
Experimental: In addition, the compound 3,4-dihydroxybenzenehydroxamic acid was active against CX-1 colon xenograft using the following protocol:
0% tumor inhibition at 800 mg/kg dose level every fourth day,
3,4,5-trihydroxybenzohydroxamic acid gave the following results against the same tumor using the same protocol.

P-388 leukemia = experiment: Prolongation of life of mice inoculated with P-388 leukemia, dosing every fifth day; assay type: in vivo; settings: 50-400 mg/kg every fifth day
CA-755 adenocarcinoma = experiment: Activity vs. CA-755 adenocarcinoma (Table 7); assay type: in vivo, mice; settings: once or twice daily for 9-10 days
Experimental: as §3

colon 38 tumor = experiment: Inhibition of growth of colon tumor C8 (colon 38); assay type: in vivo, mice
From the text: as §1

CD8F mammary tumor = experiment: Inhibition of growth of CD8F mammary tumor; assay type: in vivo
From the text: as §1

L-1210 Leukemia [4] = assay type: in vivo, mice
Experimental: In a series of studies against L-1210 leukemia, in addition to those studies set forth in Table 2 and 4, 3,4-dihydroxybenzohydroxamic acid gave the following increases in survival times at the dose levels specified. Drug was administered daily for nine days.
Similar data for 3,4,5-trihydroxybenzohydroxamic acid are as follows: […]

Lewis Lung = experiment: Activity vs. Lewis Lung (Table 5); assay type: in vivo, mice; settings: once or twice daily for 9-10 days
Experimental: as §3

ribonucleotide reductase = target: T1, ribonucleotide reductase (Rattus norvegicus, UniProt Q4KLN6); experiment: Inhibition of ribonucleotide reductase (conversion of CDP to dCDP), enzyme partially purified from Novikoff hepatoma; assay type: biochemical; settings: for IC50: CDP to dCDP, 40 min at 30° C, pH 7.5, enzyme from Novikoff hepatoma, read-out: ID50 (inhibitory dose which inhibits ribonucleotide reductase by 50%); for Inhibitory Potency for ribonucleotide reductase: relative to hydroxyurea, given an arbitrary value of 1.0
T1 construct: partially purified from Novikoff hepatoma; from tissue; host or cells: Novikoff hepatoma (rat tumour), partially purified enzyme
T1 sequence (Q4KLN6 1-390): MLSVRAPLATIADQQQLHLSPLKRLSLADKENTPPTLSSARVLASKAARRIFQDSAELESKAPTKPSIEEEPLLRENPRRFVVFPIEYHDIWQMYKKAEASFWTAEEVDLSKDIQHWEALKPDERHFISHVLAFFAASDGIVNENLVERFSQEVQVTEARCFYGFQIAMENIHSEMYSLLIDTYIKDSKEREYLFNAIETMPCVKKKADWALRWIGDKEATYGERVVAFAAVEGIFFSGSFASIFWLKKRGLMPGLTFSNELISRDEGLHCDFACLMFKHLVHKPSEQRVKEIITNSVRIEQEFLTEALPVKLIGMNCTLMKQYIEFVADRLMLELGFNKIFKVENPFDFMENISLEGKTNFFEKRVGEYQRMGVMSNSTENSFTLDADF
From the text: as §2
In the above determination of ID50 's in Table 3, ribonucleotide reductase is partially purified from Novikoff hepatoma by a procedure similar to that set forth by Elford et al. J. Biol. Chem. 245, 5228 (1970). The activity of the enzyme was measured by a slightly modified assay procedure originally developed by Reichard et al. id, 236, 1150 […]. This procedure measures the conversion of CDP to dCDP. The assay mixture (0.34 ml.) contains 3 μCi of [^3 H] CDP (specific activity […]), 3.3 μmole ATP, 5.9 μmoles magnesium chloride, 8.8 μmoles Hepes buffer at pH=7.5, 15 μmoles dithiothreitol and enzyme protein between 0.4 and 1.3 mg. Incubation was provided for forty minutes at 30° C. Ion exchange chromatography employing Dowex 50 (H^+) resin is used to separate the product from the substrate. The inhibitors were dissolved in water and a mixture of water and up to 1 % ethanol or 2% dimethylsulfoxide, neither one of which inhibited the enzyme at these concentrations. Each inhibitor was tested at a minimum of three concentrations and the active compounds reassayed at least one additional time. ID50 's in μmoles were estimated from graphs summarizing results for each compound.

P388 Leukemia = experiment: Activity vs. P388 Leukemia (Table 8); assay type: in vivo, mice; settings: once or twice daily for 9-10 days
Experimental: as §3

L-1210 Leukemia [5] = experiment: Direct side-by-side comparison with L-1210 leukemia; assay type: in vivo, mice
From the text: In a direct side-by-side comparison with L-1210 leukemia, the following results were obtained.

[6] = tested on: LX-1 human lung xenograft; experiment: Inhibition of growth of LX-1 human lung xenograft; assay type: in vivo, mice
From the text: as §1

L-1210 Leukemia [7] = assay type: in vivo, mice; remark: listed apart in the source
From the text: The above data clearly show the enhanced anti-tumor activity of trihydroxybenzohydroxamic acid where the hydroxy groups are vicinal but no hydroxyl is ortho. Similar data are available for the vicinal dihydroxybenzohydroxamic acids with and without an ortho-hydroxy substituent in an L-1210 leukemic test in mice as follows: […]

[8] = tested on: RNA and protein synthesis in Ehrlich ascites tumor cells; settings: Gale and Hynes 1968; cited from earlier work
[9] = tested on: DNA synthesis in Ehrlich ascites tumor cells; settings: Gale and Hynes 1968; in vitro; cited from earlier work
[10] = Biochemical Pharmacology 1971; cited from earlier work
L1210 leukemia [11] = settings: National Cancer Institute; cited from earlier work
[12] = tested on: DNA, RNA and protein synthesis in cells; settings: cited from earlier work

## O=C(NO)c1cc(O)c(O)c(O)c1 [3,4,5-trihydroxybenzohydroxamic acid]
[1]; 200 mg/kg
  inhibition: 69%
[1]; 400 mg/kg
  inhibition: 21%
[1]; 800 mg/kg
  inhibition: 56%
[1]; 1600 mg/kg
  inhibition: 41%
L1210 leukemia [2]; 400 mg/kg daily for 8 days
  ILS at 400 mg/kg: 53 ± 19%
L-1210 Leukemia [3]; 75 mg/kg
  % increase in survival time: 60%
L-1210 Leukemia [3]; 100 mg/kg, listed as gallohydroxamic acid
  % increase in survival time: 58% and 55%
L-1210 Leukemia [3]; 120 mg/kg
  % increase in survival time: 54%
L-5563 lymphoma; 100 mg/kg
  % inhibition: 41%
B16 melanoma; 100 mg/kg
  increase in survival: 14%
B16 melanoma; 200 mg/kg
  increase in survival: 18%
CX-1 colon xenograft; 200 mg/kg every fourth day
  tumor inhibition: 17%
CX-1 colon xenograft; 400 mg/kg every fourth day
  tumor inhibition: 40%
CX-1 colon xenograft; 800 mg/kg every fourth day
  tumor inhibition: 44%
P-388 leukemia
  prolongation of life: 23-53%
CA-755 adenocarcinoma; 100 mg/kg
  % inhibition: 28%
CA-755 adenocarcinoma; 150 mg/kg
  % inhibition: 11%
CA-755 adenocarcinoma; 175 mg/kg
  % inhibition: 29%
Colon 38 tumor; 50 mg/kg
  inhibition: 20%
Colon 38 tumor; 100 mg/kg
  inhibition: 30%
Colon 38 tumor; 200 mg/kg
  inhibition: 32%
Colon 38 tumor; 400 mg/kg
  inhibition: 17%
Colon 38 tumor; 800 mg/kg
  inhibition: 60%
CD8F mammary tumor; 300 mg/kg
  inhibition: 0%
CD8F mammary tumor; 600 mg/kg
  inhibition: 22%
L-1210 Leukemia [4]; 50 mg/kg daily for nine days
  % increase in survival: 27% and 29%
L-1210 Leukemia [4]; 200 mg/kg daily for nine days
  % increase in survival: 54% and 56%
L-1210 Leukemia [4]; 400 mg/kg daily for nine days
  % increase in survival: 0% and 4%
L-1210 Leukemia [4]; dose 800, similar data (daily for nine days)
  % increase in survival time: 16%
Lewis Lung; 100 mg/kg
  % tumor inhibition: 40%
Ribonucleotide reductase
  IC50: 10 µM
  Inhibitory Potency for ribonucleotide reductase: 50
P388 Leukemia; 200 mg/kg
  % Prolongation: 62%
P388 Leukemia; 225 mg/kg
  % Prolongation: 79%

## O=C(NO)c1ccc(O)c(O)c1 [3,4-dihydroxybenzohydroxamic acid]
L1210 leukemia [2]; 600 mg/kg daily for 8 days
  ILS at 600 mg/kg: 103 ± 15%
L-1210 Leukemia [5]; 250 mg/kg
  % increase in survival time: 32%
L-1210 Leukemia [5]; 500 mg/kg
  % increase in survival time: 70%
L-1210 Leukemia [3]; 200 mg/kg
  survivors: 4 survivors
L-1210 Leukemia [3]; 225 mg/kg
  % increase in survival time: 65%
L-5563 lymphoma; 200 mg/kg
  % inhibition: 24%
B16 melanoma; 200 mg/kg
  increase in survival: 24-25%
B16 melanoma; 400 mg/kg
  increase in survival: 41%
CX-1 colon xenograft; 200 mg/kg every fourth day
  tumor inhibition: 48%
CX-1 colon xenograft; 400 mg/kg every fourth day
  tumor inhibition: 14%
CX-1 colon xenograft; 800 mg/kg every fourth day
  tumor inhibition: 0%
CX-1 colon xenograft; every fourth day
  activity against CX-1 colon xenograft (in words): active
CA-755 adenocarcinoma; 100 mg/kg
  % inhibition: 16%
CA-755 adenocarcinoma; 200 mg/kg
  % inhibition: 25% and 36%
CA-755 adenocarcinoma; 300 mg/kg
  % inhibition: 52%
  toxic (in column % inhibition): toxic
Colon 38 tumor; 50 mg/kg
  inhibition: 12%
Colon 38 tumor; 100 mg/kg
  inhibition: 8%
Colon 38 tumor; 200 mg/kg
  inhibition: 15%
Colon 38 tumor; 400 mg/kg
  inhibition: 52%
CD8F mammary tumor; 300 mg/kg
  inhibition: 52%
CD8F mammary tumor; 600 mg/kg
  inhibition: 11%
[6]; 200 mg/kg
  inhibition: 0%
[6]; 400 mg/kg
  inhibition: 26%
[6]; 800 mg/kg
  inhibition: 27%
L-1210 Leukemia [4]; 25 mg/kg daily for nine days
  % increase in survival: 15%
L-1210 Leukemia [4]; 50 mg/kg daily for nine days
  % increase in survival: 25%
L-1210 Leukemia [4]; 100 mg/kg daily for nine days
  % increase in survival: 37%
L-1210 Leukemia [4]; 164 mg/kg daily for nine days
  % increase in survival: 21%
L-1210 Leukemia [4]; 196 mg/kg daily for nine days
  % increase in survival: 52%
L-1210 Leukemia [4]; 200 mg/kg daily for nine days
  % increase in survival: 67%
L-1210 Leukemia [4]; 235 mg/kg daily for nine days
  % increase in survival: 39%
L-1210 Leukemia [4]; 245 mg/kg daily for nine days
  % increase in survival: 45% and 68%
L-1210 Leukemia [4]; 307 mg/kg daily for nine days
  % increase in survival: 67% and 76%
L-1210 Leukemia [4]; 336 mg/kg daily for nine days
  % increase in survival: 55%
L-1210 Leukemia [4]; 384 mg/kg daily for nine days
  % increase in survival: 62% and 85%
L-1210 Leukemia [4]; 400 mg/kg daily for nine days
  % increase in survival: 67%
L-1210 Leukemia [4]; 480 mg/kg daily for nine days
  % increase in survival: 106% and 87% and 67%
L-1210 Leukemia [4]; 600 mg/kg daily for nine days
  % increase in survival: 54% and 64%
L-1210 Leukemia [7]; 100 mg/kg
  % increase in survival time: 25%
L-1210 Leukemia [7]; 300 mg/kg
  % increase in survival time: 56%
L-1210 Leukemia [7]; 453 mg/kg
  % increase in survival time: 125%
L-1210 Leukemia [7]; 500 mg/kg
  % increase in survival time: 84%
L-1210 Leukemia [7]; 543 mg/kg
  % increase in survival time: 77%
L-1210 Leukemia [7]; 600 mg/kg
  % increase in survival time: 94% and 103%
L-1210 Leukemia [7]; 643 mg/kg
  % increase in survival time: 65%
Lewis Lung; 200 mg/kg
  % tumor inhibition: 14%
Lewis Lung; 400 mg/kg
  % tumor inhibition: 31-58%
Ribonucleotide reductase
  IC50: 30 µM
  Inhibitory Potency for ribonucleotide reductase: 17
P388 Leukemia; 200 mg/kg
  % Prolongation: 51%
P388 Leukemia; 225 mg/kg
  % Prolongation: 89%

## Nc1cccc(C(=O)NO)c1 [3-Aminobenzohydroxamic acid]
[8]
  depression of RNA and protein synthesis: 50%
[9]
  inhibition of / selectivity against DNA synthesis (in words): completely inhibiting DNA synthesis

## O=C(NO)c1ccc(O)cc1 [4-hydroxybenzoylhydroxamic acid]
[10]
  antimitogenic activity (in words): most active compounds tested
L1210 leukemia [11]
  antitumor activity in vivo against L1210 leukemia (in words): significant antitumor activity in vivo

## O=C(NO)c1ccccc1 [Benzohydroxamic acid]
[8]
  inhibition of RNA synthesis (in words): found to inhibit RNA synthesis

## O=C(NO)c1ccccc1O [salicylhydroxamic acid]
[12]; Gale 1966
  inhibition of DNA synthesis (in words): selective inhibition of DNA synthesis
[12]; cells preincubated for up to two hours
  depression of RNA and protein synthesis (in words): only a slight depression of RNA and protein synthesis
[9]
  inhibition of / selectivity against DNA synthesis (in words): selective inhibition of DNA synthesis
